Data set [1] relates to OE21. The data set can be described thus: In-vitro antiproliferative assay, OE21. The class given is cell-based. Conditions: Homo sapiens, read-out: IC50 OE21.
Data set [2] concerns OE19. Put plainly: In-vitro antiproliferative assay, OE19. Type of data set: cell-based. Conditions: Homo sapiens, read-out: IC50 OE19.
Data set [3] relates to MDA-MB-231. Put plainly: In-vitro antiproliferative assay, MDA-MB-231. Conditions: read-out: IC50 MDA-MB-231. The class given is cell-based, human.
Data set [4] deals with NCI-H1299. Put plainly: In-vitro antiproliferative assay, NCI-H1299. The class given is cell-based. Conditions: Homo sapiens, read-out: IC50 NCI-H1299.
The subject of data set [5] is Trypanosome (T. brucei brucei). Put plainly: In-vitro antitrypanosomal efficacy assay (cell growth, resazurin). Type of data set: cell-based. The note with it: T. brucei cell growth. In general terms: The colour change of resazurin is a common sign of viable cells or microbes.
Description: To column 12, 200 μl media was added to provide a no cells control. Plates were then incubated at 37° C. in an atmosphere of 5% CO2 for 69 hours, before the addition of 20 μl of 500 μM rezasurin solution, and a further incubation period of 4 hours. […] Concentration effect curves were fitted using non-linear regression using XLFit 4.2 and EC50 values determined.
In data set [6] the test system is A549. Put plainly: In-vitro antiproliferative assay, A549. Conditions: Homo sapiens, A549, 72 h, read-out: IC50 A549.
In data set [7] the test system is HT29. Put plainly: In-vitro antiproliferative assay, HT29. Type of data set: cell-based, human.
For data set [8], the system named is SkBr3. Put plainly: In-vitro antiproliferative assay, SkBr3. The note with it: Homo sapiens, SK-BR-3, 72 h, read-out: IC50 SkBr3.
Data set [9] has as its system RT112. Put plainly: In-vitro antiproliferative assay, RT112. The note with it: Homo sapiens, RT-112, 72 h, read-out: IC50 RT112.
In data set [10] the test system is HT1080. Put plainly: In-vitro antiproliferative assay, HT1080. Conditions: Homo sapiens, HT-1080, 72 h, read-out: IC50 HT1080.
Data set [11] deals with HCT116. Put plainly: In-vitro antiproliferative assay, HCT116. The class given is cell-based, human. The note with it: read-out: IC50 HCT116.
Data set [12] concerns H460. The data set can be described thus: In-vitro antiproliferative assay, H460. The note with it: Homo sapiens, NCI-H460, 72 h, read-out: IC50 H460.
Data set [13] has as its system MRC5. Put plainly: In-vitro antiproliferative assay, MRC5. The note with it: Homo sapiens, MRC5, 72 h, read-out: IC50 MRC5.
Data set [14] has as its system C6. Put plainly: In-vitro antiproliferative assay, C6. The note with it: C6, 72 h, read-out: IC50 C6.
Data set [15] has as its target T. brucei N-myristoyl transferase (Trypanosoma brucei brucei (strain 927/4 GUTat10.1), UniProt Q388H8). The data set can be described thus: biochemical. Type of data set: biochemical. Conditions: value with no enzyme tag in the cell; taken as T. brucei NMT; read-out: IC50 (μM) NMT Enzyme.
The nature of data set [16]: CNS penetration: drug concentration in blood and brain after i.v. dosing. Type of data set: in vivo. The note with it: iv, female NMRI mouse, single i.v. dose 2.0 mg/kg, t = 5 min, average of three animals.
Description: Assessment of the CNS penetration of NMT inhibitors was determined in the female NMRI mouse following i.v. dosing (n=3 per dose group, concentration measured after t=5 min).

Like-named read-outs stand apart in the source and are kept apart here.

Chain of T. brucei N-myristoyl transferase (Q388H8 1-446): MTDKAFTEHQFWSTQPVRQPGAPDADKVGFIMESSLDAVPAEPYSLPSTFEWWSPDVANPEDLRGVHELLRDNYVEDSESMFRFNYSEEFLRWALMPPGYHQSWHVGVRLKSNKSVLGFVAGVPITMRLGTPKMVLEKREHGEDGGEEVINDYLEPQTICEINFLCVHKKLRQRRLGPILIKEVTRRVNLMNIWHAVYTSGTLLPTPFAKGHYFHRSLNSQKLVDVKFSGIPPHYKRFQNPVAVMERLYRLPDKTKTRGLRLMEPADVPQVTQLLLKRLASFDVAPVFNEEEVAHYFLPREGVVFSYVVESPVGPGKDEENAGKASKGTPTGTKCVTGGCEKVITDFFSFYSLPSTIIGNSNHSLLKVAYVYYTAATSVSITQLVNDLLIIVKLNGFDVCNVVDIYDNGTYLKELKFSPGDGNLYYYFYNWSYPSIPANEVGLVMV

As for `Cc1nn(C)c(C)c1N[S+](=O)([O-])c1c(Cl)cc(-c2cccc(C3CCNCC3)c2)cc1Cl`, the IC50 in data set [1] (OE21, 72 h) came out at 1200 nM; in data set [2] (OE19, 72 h) it was 4570 nM; in data set [3] (Homo sapiens, MDA-MB-231, 72 h), 890 nM; in data set [4] (NCI-H1299, 72 h) it was 3710 nM. For the same compound, the “ED50 (μM) T. brucei” value in data set [5] is 0.02 µM.

On to `Cc1nn(C)c(C)c1N[S+](=O)([O-])c1c(Cl)cc(-c2ccnc(N3CCNCC3)c2)cc1Cl` [DDD85646, 2,6-Dichloro-4-(2-piperazin-1-yl-pyridin-4-yl)-N-(1,3,5-trimethyl-1H-pyrazol-4-yl)-benzenesulfonamide], for which the IC50 in data set [6] turned out to be 157 nM; in [7] (Homo sapiens, HT-29, 72 h, read-out: IC50 HT29), 112 nM; in data set [7] (Homo sapiens, HT-29, 72 h, read-out: IC50 HT-29), 112 nM; in data set [1] (OE21, 72 h), 290 nM; in data set [8] it was 108 nM; in [2] (OE19, 72 h), 660 nM. The IC50 in data set [3] (Homo sapiens, MDA-MB-231, 72 h) stood at 230 nM; in data set [9], 330 nM; in data set [4] (NCI-H1299, 72 h), 570 nM; in data set [10], 60 nM; in data set [11] (Homo sapiens, HCT-116, 72 h), 234 nM; in [12] it was 1320 nM. Besides, the IC50 in data set [13] turned out to be 123 nM; in data set [14], 1160 nM. Besides, in data set [5], the “ED50 (μM) T. brucei” value came out at 0.001 µM.

For `Cc1nn(C)c(C)c1N[S+](=O)([O-])c1ccc(-c2cccc(CN3CCN(C)CC3)c2)cc1` [DDD86212, 3′-(4-Methyl-piperazin-1-ylmethyl)-biphenyl-4-sulfonic acid (1,3,6-trimethyl-1H-pyrazol-4-yl)-amide], the IC50 in [1] (OE21, Table 3, 72 h, Alamar blue) was found to be 1390 nM; in data set [2] (OE19, Table 3, 72 h, Alamar blue), 4370 nM; in data set [3] (Homo sapiens, MDA-MB-231, Table 3, 72 h, Alamar blue) it was 640 nM; in [4] (NCI-H1299, Table 3, 72 h, Alamar blue), 1080 nM. Also, the “ED50 (μM) T. brucei” value in data set [5] came to 0.03 µM.

Regarding `Cc1c(N[S+](=O)([O-])c2c(Cl)cc(-c3ccnc(N4CCNCC4)c3)cc2Cl)c(CC(C)C)nn1C` [DDD86481, 2,6-Dichloro-N-(3-isobutyl-1,5-dimethyl-1H-pyrazol-4-yl)-4-(2-piperazin-1-yl-pyridin-4-yl)-benzenesulfonamide], the IC50 in [1] (OE21, 72 h) is 57 nM; in data set [2] (OE19, 72 h), 132 nM; in data set [3] (Homo sapiens, MDA-MB-231, 72 h), 47 nM; in [4] (NCI-H1299, 72 h), 96 nM.

In the case of `Cc1nn(C)c(C)c1N[S+](=O)([O-])c1c(Cl)cc(-c2cccc(CN3CCN(C)CC3)c2)cc1Cl` [DDD88558], the IC50 in data set [7] (Homo sapiens, HT-29, Table 4, 72 h, Alamar blue, read-out: IC50 HT-29) is 176 nM; in [3] (Homo sapiens, MDA-MB-231, Table 4, 72 h, Alamar blue), 448 nM; in data set [11] (Homo sapiens, HCT-116, Table 4, 72 h, Alamar blue), 629 nM. Also, the “ED50 (μM) T. brucei” value in data set [5] was found to be 0.009 µM.

As for `Cc1c(N[S+](=O)([O-])c2c(Cl)cc(CCCC3CCNCC3)cc2Cl)c(CC(C)C)nn1C` [DDD90086], the IC50 in data set [7] (Table 4, 72 h, Alamar blue, read-out: IC50 HT-29) came out at 281 nM; in data set [3] (Table 4, 72 h, Alamar blue), 537 nM; in data set [11] (Table 4, 72 h, Alamar blue) it was 921 nM; in [15], 0.004 µM. Moreover, in data set [5], the “ED50 (μM) T. brucei” value was found to be 0.006 µM.

For `Cc1nn(C)c(C)c1N(C(F)F)[S+](=O)([O-])c1c(Cl)cc(CCCCC2CCN(C)CC2)cc1Cl` [DDD100144, 2,6-dichloro-N-(difluoromethyl)-4-(4-(1-methylpiperidin-4-yl)butyl)-N-(1,3,5-trimethyl-1H-pyrazol-4-yl)benzenesulfonamide], the IC50 came out at 218 nM in data set [3] (Homo sapiens, MDA-MB-231, 72 h) and 282 nM in data set [11] (Homo sapiens, HCT-116, 72 h). Besides, the concentration at 5 min is 545 ng/mL in [16] (brain, read-out: Conc (ng/ml in brain)) and 413 ng/mL in data set [16] (whole blood, read-out: Conc (ng/ml in blood)).

As a reminder, the IC50 is the concentration needed to halve the response being measured.

Values taken from patent US9156811B2 (priority 2008, dated 2015).
